Experiments:
Japanese bulrush = assay: Test Example 2: herbicidal activity, application during weed generation under submerged conditions (Table 17, symbol B); format: in vivo, Japanese bulrush (Schoenoplectus juncoides); conditions: AAH 320 g/ha; application during weed generation, submerged conditions
Method in brief: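 Effect on each weed is rated three weeks post-treatment, using the same scoring criteria as the preceding test. Plants grow from mixed-sown seed in flooded alluvial soil (4 cm water) at 25° C. to 30° C., and are treated at one to two leaves with diluted emulsion dropped onto the water.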

Chinese sprangletop = assay: Test Example 3: herbicidal effect by foliage application, Wagner pot (Table 18, symbol D); format: in vivo, chinese sprangletop (Leptochloa chinensis); conditions: for herbicidal effect on Chinese sprangletop (D): 320 g/ha
Method in brief: (§1)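 Plants were sown in alluvial soil held under 0.1–0.5 cm standing water and grown 14 days in a greenhouse at 25–30 °C. An emulsifiable formulation, water-diluted to the set dose, was then sprayed onto the foliage, and effects were scored three weeks later using previously defined criteria.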

rice flat sedge = assay: Test Example 3: herbicidal effect by foliage application, Wagner pot (Table 18, symbol E); format: in vivo, rice flat sedge (Cyperus iria); conditions: for herbicidal effect on rice flat sedge (E): 320 g/ha
Method in brief: as §1

green foxtail = assay: Test Example 4: herbicidal effect by soil treatment (Table 19, symbol G); format: in vivo, green foxtail (Setaria viridis); conditions: amount of applied herbicide 320 g/ha
Method in brief: (§2)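 Soil-surface application: an emulsion agent diluted with water to the predetermined dose is sprayed uniformly over seeds lying under roughly 1.5 cm of sterilized diluvial soil. Boxes stay in a greenhouse at 25° C. to 30° C. Three weeks later, each species is graded on previously defined criteria.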

barnyard grass [1] = assay: Test Example 4: herbicidal effect by soil treatment (Table 19, symbol H); format: in vivo, barnyard grass (Echinochloa crus-galli); conditions: amount of applied herbicide 320 g/ha
Method in brief: as §2

blackgrass [2] = assay: Test Example 4: herbicidal effect by soil treatment (Table 19, symbol J); format: in vivo, blackgrass (Alopecurus myosuroides); conditions: amount of applied herbicide 320 g/ha
Method in brief: as §2

Italian ryegrass [3] = assay: Test Example 4: herbicidal effect by soil treatment (Table 19, symbol K); format: in vivo, Italian ryegrass (Lolium multiflorum); conditions: amount of applied herbicide 320 g/ha
Method in brief: as §2

lambsquarters [4] = assay: Test Example 4: herbicidal effect by soil treatment (Table 19, symbol O); format: in vivo, lambsquarters (Chenopodium album); conditions: amount of applied herbicide 320 g/ha
Method in brief: as §2

barnyard grass [5] = assay: Test Example 5: herbicidal effect by foliage application, plastic box (Table 20, symbol H); format: in vivo, barnyard grass (Echinochloa crus-galli); conditions: 320 g/ha; for herbicidal effect on H: barnyard grass (evaluation grade 0-5): foliage application after 14-day growth, evaluated three weeks after application
Method in brief: (§3)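 Sow seeds spot-wise in sterilized diluvial soil; cover with ~1.5 cm soil. Grow 14 days in greenhouse, 25° C. to 30° C. Spray foliage with emulsion diluted to predetermined amount. Rate effect after 3 weeks.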

wild oat = assay: Test Example 5: herbicidal effect by foliage application, plastic box (Table 20, symbol I); format: in vivo, wild oat (Avena fatua); conditions: 320 g/ha; for herbicidal effect on I: wild oat (evaluation grade 0-5): foliage application after 14-day growth, evaluated three weeks after application
Method in brief: as §3

blackgrass [6] = assay: Test Example 5: herbicidal effect by foliage application, plastic box (Table 20, symbol J); format: in vivo, blackgrass (Alopecurus myosuroides); conditions: 320 g/ha; for herbicidal effect on J: blackgrass (evaluation grade 0-5): foliage application after 14-day growth, evaluated three weeks after application
Method in brief: as §3

Italian ryegrass [7] = assay: Test Example 5: herbicidal effect by foliage application, plastic box (Table 20, symbol K); format: in vivo, Italian ryegrass (Lolium multiflorum); conditions: 320 g/ha; for herbicidal effect on K: Italian ryegrass (evaluation grade 0-5): foliage application after 14-day growth, evaluated three weeks after application
Method in brief: as §3

windgrass = assay: Test Example 5: herbicidal effect by foliage application, plastic box (Table 20, symbol L); format: in vivo, windgrass (Apera spica-venti); conditions: foliage application, 320 g/ha, three weeks after application
Method in brief: as §3

velvetleaf = assay: Test Example 5: herbicidal effect by foliage application, plastic box (Table 20, symbol M); format: in vivo, velvetleaf (Abutilon theophrasti); conditions: 320 g/ha; for herbicidal effect on M: velvetleaf (evaluation grade 0-5): foliage application after 14-day growth, evaluated three weeks after application
Method in brief: as §3

lambsquarters [8] = assay: Test Example 5: herbicidal effect by foliage application, plastic box (Table 20, symbol O); format: in vivo, lambsquarters (Chenopodium album); conditions: 320 g/ha; for herbicidal effect on O: lambsquarters (evaluation grade 0-5): foliage application after 14-day growth, evaluated three weeks after application
Method in brief: as §3

chickweed = assay: Test Example 5: herbicidal effect by foliage application, plastic box (Table 20, symbol P); format: in vivo, common chickweed (Stellaria media); conditions: 320 g/ha; for P: chickweed, herbicidal effect grade: foliage application, three weeks after application; for herbicidal effect on P: chickweed (evaluation grade 0-5): foliage application after 14-day growth, evaluated three weeks after application
Method in brief: as §3

persian speedwell = assay: Test Example 5: herbicidal effect by foliage application, plastic box (Table 20, symbol R); format: in vivo, Persian speedwell (Veronica persica); conditions: 320 g/ha; for herbicidal effect on R: persian speedwell (evaluation grade 0-5): foliage application after 14-day growth, evaluated three weeks after application
Method in brief: as §3

[9] = amount of applied herbicide 320 g/ha
[10] = foliage application, three weeks after application

Row | SMILES | herbicidal effect rating, B: Japanese bulrush (Japanese bulrush) | herbicidal effect on D: Chinese sprangletop (Chinese sprangletop; [9]) | herbicidal effect on E: rice flat sedge (rice flat sedge; [9]) | herbicidal effect, G: green foxtail (green foxtail) | herbicidal effect, H: barnyard grass (barnyard grass [1]) | herbicidal effect, J: blackgrass (blackgrass [2]) | herbicidal effect, K: Italian ryegrass (Italian ryegrass [3]) | herbicidal effect, O: lambsquarters (lambsquarters [4]) | H: barnyard grass, herbicidal effect grade (barnyard grass [5]; [10]) | I: wild oat, herbicidal effect grade (wild oat; [10]) | J: blackgrass, herbicidal effect grade (blackgrass [6]; [10]) | K: Italian ryegrass, herbicidal effect grade (Italian ryegrass [7]; [10]) | L: windgrass, herbicidal effect grade (windgrass) | M: velvetleaf, herbicidal effect grade (velvetleaf; [10]) | O: lambsquarters, herbicidal effect grade (lambsquarters [8]; [10]) | P: chickweed, herbicidal effect grade (chickweed) | R: persian speedwell, herbicidal effect grade (persian speedwell; [10]) | herbicidal effect on Chinese sprangletop (D) (Chinese sprangletop) | herbicidal effect on rice flat sedge (E) (rice flat sedge) | Herbicidal effect by soil treatment, G: green foxtail (green foxtail) | other results
1 | CCCC(=O)Oc1c(C)nn(C)c(=O)c1-c1c(-c2ccccc2OC)sc2cc(F)ccc12 [3-004] | 2 (Herbicidal rate of 20% or more and less than 40%) | 4 (Herbicidal rate of 70% or more and less than 90%) | 5 (Herbicidal rate of 90% or more (almost completely withered)) | 4 (Herbicidal rate of 70% or more and less than 90%) | 4 (Herbicidal rate of 70% or more and less than 90%) | 4 (Herbicidal rate of 70% or more and less than 90%) | 5 (Herbicidal rate of 90% or more (almost completely withered)) | 5 (Herbicidal rate of 90% or more (almost completely withered)) | 5 (Herbicidal rate of 90% or more (almost completely withered)) | 4 (Herbicidal rate of 70% or more and less than 90%) | 5 (Herbicidal rate of 90% or more (almost completely withered)) | 5 (Herbicidal rate of 90% or more (almost completely withered)) | 5 (Herbicidal rate of 90% or more (almost completely withered)) | 5 (Herbicidal rate of 90% or more (almost completely withered)) | 5 (Herbicidal rate of 90% or more (almost completely withered)) | 5 (Herbicidal rate of 90% or more (almost completely withered)) | 5 (Herbicidal rate of 90% or more (almost completely withered)) | – | – | – | –
2 | COc1ccc(-c2sc3cc(F)ccc3c2-c2c(O)c(C)nn(C)c2=O)cc1 [3-005] | 3 (Herbicidal rate of 40% or more and less than 70%) | 3 (Herbicidal rate of 40% or more and less than 70%) | 5 (Herbicidal rate of 90% or more (almost completely withered)) | 3 (Herbicidal rate of 40% or more and less than 70%) | 3 (Herbicidal rate of 40% or more and less than 70%) | 0 (Herbicidal rate of 5% or less (almost no effect)) | 5 (Herbicidal rate of 90% or more (almost completely withered)) | 4 (Herbicidal rate of 70% or more and less than 90%) | 3 (Herbicidal rate of 40% or more and less than 70%) | 3 (Herbicidal rate of 40% or more and less than 70%) | 0 (Herbicidal rate of 5% or less (almost no effect)) | 3 (Herbicidal rate of 40% or more and less than 70%) | 3 (Herbicidal rate of 40% or more and less than 70%) | 5 (Herbicidal rate of 90% or more (almost completely withered)) | 5 (Herbicidal rate of 90% or more (almost completely withered)) | 5 (Herbicidal rate of 90% or more (almost completely withered)) | 5 (Herbicidal rate of 90% or more (almost completely withered)) | – | – | – | –
3 | C=C(C)C(=O)Oc1c(C)nn(C)c(=O)c1-c1c(-c2ccccc2OC)sc2cc(OC)ccc12 [3-155] | 5 (Herbicidal rate of 90% or more (almost completely withered)) | – | – | – | – | – | – | – | – | – | – | – | – | – | – | – | – | 4 (Herbicidal rate of 70% or more and less than 90%) | 4 (Herbicidal rate of 70% or more and less than 90%) | 0 (Herbicidal rate of 5% or less (almost no effect)) | Herbicidal effect by soil treatment, H: barnyard grass (barnyard grass [1]): 2 (Herbicidal rate of 20% or more and less than 40%); Herbicidal effect by soil treatment, J: blackgrass (blackgrass [2]): 4 (Herbicidal rate of 70% or more and less than 90%); Herbicidal effect by soil treatment, K: Italian ryegrass (Italian ryegrass [3]): 3 (Herbicidal rate of 40% or more and less than 70%); Herbicidal effect by soil treatment, O: lambsquarters (lambsquarters [4]): 0 (Herbicidal rate of 5% or less (almost no effect)); herbicidal effect on H: barnyard grass (evaluation grade 0-5) (barnyard grass [5]): 5 (Herbicidal rate of 90% or more (almost completely withered)); herbicidal effect on I: wild oat (evaluation grade 0-5) (wild oat): 3 (Herbicidal rate of 40% or more and less than 70%); herbicidal effect on J: blackgrass (evaluation grade 0-5) (blackgrass [6]): 5 (Herbicidal rate of 90% or more (almost completely withered)); herbicidal effect on K: Italian ryegrass (evaluation grade 0-5) (Italian ryegrass [7]): 4 (Herbicidal rate of 70% or more and less than 90%); herbicidal effect on M: velvetleaf (evaluation grade 0-5) (velvetleaf): 5 (Herbicidal rate of 90% or more (almost completely withered)); herbicidal effect on O: lambsquarters (evaluation grade 0-5) (lambsquarters [8]): 4 (Herbicidal rate of 70% or more and less than 90%); herbicidal effect on P: chickweed (evaluation grade 0-5) (chickweed): 5 (Herbicidal rate of 90% or more (almost completely withered)); herbicidal effect on R: persian speedwell (evaluation grade 0-5) (persian speedwell): 5 (Herbicidal rate of 90% or more (almost completely withered))
4 | CCCC(=O)Oc1c(C)nn(C)c(=O)c1-c1c(-c2ccc(OC)cc2)sc2c(F)cccc12 [4-006] | 3 (Herbicidal rate of 40% or more and less than 70%) | – | – | – | – | – | – | – | – | – | – | – | – | – | – | – | – | 5 (Herbicidal rate of 90% or more (almost completely withered)) | 5 (Herbicidal rate of 90% or more (almost completely withered)) | 4 (Herbicidal rate of 70% or more and less than 90%) | Herbicidal effect by soil treatment, H: barnyard grass (barnyard grass [1]): 4 (Herbicidal rate of 70% or more and less than 90%); Herbicidal effect by soil treatment, J: blackgrass (blackgrass [2]): 0 (Herbicidal rate of 5% or less (almost no effect)); Herbicidal effect by soil treatment, K: Italian ryegrass (Italian ryegrass [3]): 0 (Herbicidal rate of 5% or less (almost no effect)); Herbicidal effect by soil treatment, O: lambsquarters (lambsquarters [4]): 4 (Herbicidal rate of 70% or more and less than 90%); herbicidal effect on H: barnyard grass (evaluation grade 0-5) (barnyard grass [5]): 4 (Herbicidal rate of 70% or more and less than 90%); herbicidal effect on I: wild oat (evaluation grade 0-5) (wild oat): 0 (Herbicidal rate of 5% or less (almost no effect)); herbicidal effect on J: blackgrass (evaluation grade 0-5) (blackgrass [6]): 1 (Herbicidal rate of 5% or more and less than 20%); herbicidal effect on K: Italian ryegrass (evaluation grade 0-5) (Italian ryegrass [7]): 4 (Herbicidal rate of 70% or more and less than 90%); herbicidal effect on M: velvetleaf (evaluation grade 0-5) (velvetleaf): 5 (Herbicidal rate of 90% or more (almost completely withered)); herbicidal effect on O: lambsquarters (evaluation grade 0-5) (lambsquarters [8]): 3 (Herbicidal rate of 40% or more and less than 70%); herbicidal effect on P: chickweed (evaluation grade 0-5) (chickweed): 5 (Herbicidal rate of 90% or more (almost completely withered)); herbicidal effect on R: persian speedwell (evaluation grade 0-5) (persian speedwell): 3 (Herbicidal rate of 40% or more and less than 70%)
5 | CSc1ccc(-c2oc3ccc(F)cc3c2-c2c(O)c(C)nn(C)c2=O)cc1 [9-037] | 2 (Herbicidal rate of 20% or more and less than 40%) | – | – | – | – | – | – | – | – | – | – | – | – | – | – | – | – | – | – | – | Herbicidal effect on D (Chinese sprangletop), foliage application (Chinese sprangletop; [9]): 2 (Herbicidal rate of 20% or more and less than 40%); Herbicidal effect on E (rice flat sedge), foliage application (rice flat sedge; [9]): 5 (Herbicidal rate of 90% or more (almost completely withered)); G: green foxtail, herbicidal effect grade (green foxtail): 1 (Herbicidal rate of 5% or more and less than 20%); H: barnyard grass, herbicidal effect grade (barnyard grass [1]): 2 (Herbicidal rate of 20% or more and less than 40%); J: blackgrass, herbicidal effect grade (blackgrass [2]): 0 (Herbicidal rate of 5% or less (almost no effect)); K: Italian ryegrass, herbicidal effect grade (Italian ryegrass [3]): 5 (Herbicidal rate of 90% or more (almost completely withered)); O: lambsquarters, herbicidal effect grade (lambsquarters [4]): 2 (Herbicidal rate of 20% or more and less than 40%); herbicidal effect on barnyard grass (H) (barnyard grass [5]; [10]): 4 (Herbicidal rate of 70% or more and less than 90%); herbicidal effect on wild oat (I) (wild oat; [10]): 5 (Herbicidal rate of 90% or more (almost completely withered)); herbicidal effect on blackgrass (J) (blackgrass [6]; [10]): 2 (Herbicidal rate of 20% or more and less than 40%); herbicidal effect on Italian ryegrass (K) (Italian ryegrass [7]; [10]): 5 (Herbicidal rate of 90% or more (almost completely withered)); herbicidal effect on windgrass (L) (windgrass): 5 (Herbicidal rate of 90% or more (almost completely withered)); herbicidal effect on velvetleaf (M) (velvetleaf; [10]): 5 (Herbicidal rate of 90% or more (almost completely withered)); herbicidal effect on lambsquarters (O) (lambsquarters [8]; [10]): 5 (Herbicidal rate of 90% or more (almost completely withered)); herbicidal effect on persian speedwell (R) (persian speedwell; [10]): 5 (Herbicidal rate of 90% or more (almost completely withered))

From US20230085307A1, “PYRIDAZINONE COMPOUND AND HERBICIDE” (NISSAN CHEMICAL CORPORATION, priority 2019, published 2023)
